Test results taken from US7812117B2, “Vasostatin as marrow protectant” (The United States of America as represented by the …, priority 1998, dated 2010).

Key:
[1] = system: murine bone marrow cells; assay: Murine bone marrow cell proliferation in vitro ([3H] thymidine incorporation); settings: cisplatinum 25 μM, regardless the addition of vaso
[2] = system: murine bone marrow cells; settings: C57BL/6NCR, mouse, 77 nM

Row | SMILES | bone marrow cell proliferation induced by IL-3 at the highest dose of cisplatinum [1] | reduction of bone marrow cell proliferation [2]
1 | N.N.[Cl][Pt][Cl] [Cisplatinum, cis-diammine-dichloroplatinum II, reference compound] | minimal | –
2 | COc1cc([C@@H]2c3cc4c(cc3[C@@H](O[C@@H]3O[C@@H]5CO[C@@H](C)O[C@H]5[C@H](O)[C@H]3O)[C@H]3COC(=O)[C@H]23)OCO4)cc(OC)c1O [Etoposide, reference compound] | – | 1.5-2.7 fold
